One assay addresses T1, human TREM2 (Homo sapiens, UniProt Q9NZC2).
T1 construct: expressed in transfected cells; host or cells: HEK293T-hTREM2 cells (HEK cell line expressing human TREM2 and DAP12)
Put plainly: TREM2 agonist potency by cellular phosphorylation of Syk (AlphaLisa) in HEK293T-hTREM2 cells expressing human TREM2 and DAP12. The assay is classed as cell-based.
Details: not given
Summed up:
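HEK293T cells co-expressing human TREM2 and DAP12 were exposed to compound in assay buffer for 45 min at room temperature, then lysed. Phospho-Syk measured by AlphaLisa; % activation fitted with a four-parameter agonist curve to give EC50.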
T1 sequence (Q9NZC2 19-230): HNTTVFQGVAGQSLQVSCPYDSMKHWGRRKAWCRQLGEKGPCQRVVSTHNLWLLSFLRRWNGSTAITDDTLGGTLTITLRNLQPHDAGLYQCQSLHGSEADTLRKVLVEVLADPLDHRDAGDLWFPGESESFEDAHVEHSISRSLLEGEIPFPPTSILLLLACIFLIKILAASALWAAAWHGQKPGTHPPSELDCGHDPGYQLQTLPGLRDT
T1 sequence (O43914 22-113 partner): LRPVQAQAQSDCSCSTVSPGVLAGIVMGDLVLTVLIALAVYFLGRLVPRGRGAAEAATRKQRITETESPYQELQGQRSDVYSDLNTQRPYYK
With `Cc1cc2c(-n3cccc3)nc(N3C[C@@H](C)O[C@@H](c4cnn(C5CC5)c4)C3)nc2nc1C` [Example 67, (2S,6R)-2-(1-cyclopropyl-pyrazol-4-yl)-4-(6,7-dimethyl-4-pyrrol-1-yl-pyrido[2,3-d]pyrimidin-2-yl)-6-methyl-morpholine], the EC50 was 0.1 to 0.5 µM.

Still in this assay, the particulars now being: HEK293 cells expressing hTREM2 and DAP12; 45 minutes at room temperature; Syk phosphorylation, AlphaLisa; read-out: hTREM2 EC50.
As for `Cc1nc2ccc(C3CC(c4nc(-c5ccc(F)cc5F)c5nc(C)c(C)nc5n4)CCO3)cc2s1` (centres unmarked) [Example 115, 6-[4-[4-(2,4-difluorophenyl)-6,7-dimethyl-pteridin-2-yl]tetrahydropyran-2-yl]-2-methyl-1,3-benzothiazole], the EC50 is less than 0.1 µM.

As to `Cc1nc2nc([C@H]3CCO[C@@H](c4cnn(C5CC5)c4)C3)nc(C34CC(C(F)(F)F)(C3)C4)c2cc1-c1ccn(C)n1` [Example 27, 2-((2R,4S)-2-(1-cyclopropyl-1H-pyrazol-4-yl)tetrahydro-2H-pyran-4-yl)-7-methyl-6-(1-methyl-1H-pyrazol-3-yl)-4-(3-(trifluoromethyl)-bicyclo[1.1.1]pentan-1-yl)pyrido[2,3-d]pyrimidine], the concentration giving a half-maximal response (EC50) fell in the range of 0.1 to 0.5 µM. The same measure, in the same setting: with `Cc1nc2nc([C@H]3CCO[C@@H](c4cnn(C5CC5)c4)C3)nc(C34C5C6C7C5C3C7C64)c2nc1C` (stereo partly drawn) [Example 140, 2-((2R,4S)-2-(1-cyclopropyl-1H-pyrazol-4-yl)tetrahydro-2H-pyran-4-yl)-6,7-dimethyl-4-(cuban-1-yl)pteridine] the figure was less than 0.1 µM. As to `Cc1nnc(-c2cc3c(-c4ccc(F)cc4F)nc(N4C[C@@H](C)O[C@@H](c5cnn(C6CC6)c5)C4)nc3nc2C)s1` [Example 10, (2S,6R)-2-(1-cyclopropylpyrazol-4-yl)-4-[4-(2,4-difluorophenyl)-7-methyl-6-(5-methyl-1,3,4-thiadiazol-2-yl)pyrido[2,3-d]pyrimidin-2-yl]-6-methyl-morpholine], the EC50 was less than 0.1 µM.

With `COC(=O)c1cc2c(-c3ccc(F)cc3F)nc([C@H]3CCO[C@@H](c4cnn(C5CC5)c4)C3)nc2nc1C` [Example 8, methyl 2-((2R,4S)-2-(1-cyclopropyl-1H-pyrazol-4-yl)tetrahydro-2H-pyran-4-yl)-4-(2,4-difluorophenyl)-7-methylpyrido[2,3-d]-pyrimidine-6-carboxylate], the EC50 is less than 0.1 µM. With `Cc1nc2nc(N3C[C@@H](C)O[C@@H](c4cnn(C5CC5)c4)C3)nc(-c3ccc(=O)n(C)c3)c2nc1C` [Example 104, 5-[2-[(2S,6R)-2-(1-cyclopropylpyrazol-4-yl)-6-methyl-morpholin-4-yl]-6,7-dimethyl-pteridin-4-yl]-1-methyl-pyridin-2-one], the EC50 is greater than 0.5 µM. Still for that read-out and setting: with `Cc1nc2nc([C@H]3CCO[C@@H](c4cnn(C5CC5)c4)C3)nc(C34CC(C(F)(F)F)(C3)C4)c2cc1C#N` [Example 29, 2-[(2R,4S)-2-(1-cyclopropylpyrazol-4-yl)tetrahydropyran-4-yl]-7-methyl-4-[3-(trifluoromethyl)-1-bicyclo[1.1.1]pentanyl]pyrido[2,3-d]pyrimidine-6-carbonitrile] the figure was less than 0.1 µM. Turning to `Cc1nc2nc(N3C[C@@H](C)O[C@@H](c4cnn(CC(F)F)c4)C3)nc(C34CC(C(F)(F)F)(C3)C4)c2cc1C#N` [Example 70, 2-((2S,6R)-2-(1-(2,2-difluoroethyl)-1H-pyrazol-4-yl)-6-methyl-morpholino)-7-methyl-4-(3-(trifluoromethyl)bicyclo[1.1.1]pentan-1-yl)pyrido[2,3-d]pyrimidine-6-carbonitrile], the concentration giving a half-maximal response (EC50) was less than 0.1 µM. For the compound `Cc1nc2nc([C@H]3CCO[C@@H](c4cnn(C5CC5)c4)C3)nc(C34CC(C#N)(C3)C4)c2nc1C` [Example 119, 3-(2-((2R,4S)-2-(1-cyclopropyl-1H-pyrazol-4-yl)tetrahydro-2H-pyran-4-yl)-6,7-dimethylpteridin-4-yl)bicyclo[1.1.1]pentane-1-carbonitrile], the 50% effective concentration (EC50) was 0.1 to 0.5 µM. As for `Cc1nc2nc(N3C[C@@H](C)O[C@@H](c4cnn(C5CC5)c4)C3)nc(C3CCCC3)c2cc1C#N` [Example 72, 4-cyclopentyl-2-[(2S,6R)-2-(1-cyclopropyl-pyrazol-4-yl)-6-methyl-morpholin-4-yl]-7-methyl-pyrido[2,3-d]pyrimidine-6-carbonitrile], the EC50 was less than 0.1 µM.

For the origin of these results see patent publication US20260327225A1, “HETEROCYCLIC COMPOUNDS AS TRIGGERING RECEPTOR EXPRESSED ON MYELOID CELLS 2 AGONISTS AND METHODS OF USE” (VIGIL NEUROSCIENCE, INC., priority 2023, published 2026).
